A short description of data set [1]: Clinical plasma and CSF PK in HER2+ MBC patients. Format: in vivo, human. Here is the method:
The plasma concentration of Compound 6 at the dosage of 50 to 200 mg following single dose or multiple doses were tested. […] In patients with BM, averaged Kpuu,CSF was around 1.82 and 0.78 for Compound 6 and its active metabolite Compound 16, respectively.

A short description of data set [2]: Blood brain barrier penetration assay in rats (short oral absorption model with blood, plasma and brain binding). Format: in vivo. The conditions noted are these: male, Han Wistar, CSF, Table 5, rat, read-out: Kp,uu,CSF. Here is the method: In vitro blood, plasma and brain binding assay was carried out with equilibrium dialysis device. […] At the end of incubation, a 50 μL aliquot from the receiver side and a 5 μL from the donor chamber were taken. The 5 μL sample was further diluted with 45 μL of blank blood, plasma or brain homogenate. Paired samples were matrix-matched with either buffer or blank matrix, and mixed for 2 min, and then precipitated with 150 μL cold acetonitrile with 100 ng/mL tolbutamide as internal standard. After centrifuging at 4000 rpm for 20 min, supernatant was diluted with 0.1% formic acid aqueous solution and analyzed for LC/MS/MS (API 4000, Applied Biosystems, Foster City). […] D is dilution factor. […] A Short oral absorption (SOA) model is an in-vivo screening model to identify brain penetration of a compound. Six male Han Wistar rats purchased from Beijing Vital River were orally dosed with the compound. […] Brain tissue was harvested and homogenized in 3× volume of 100 mM phosphate buffered saline (pH7.4). All samples were stored at ˜−70° C. prior to LC/MS/MS analysis. Standards were prepared by spiking blank plasma, blood, brain homogenate and artificial CSF. […] After 2 min vortex and 5 min centrifugation at 14,000 rpm, supernatant was analyzed by LC/MS/MS (API 4000, Applied Biosystems, Foster City). Two sets of standard curves were run at the beginning and end of each batch from blood sample analysis. For brain and CSF samples, one standard curve was analyzed along with test samples. Total brain levels, expressed as brain/blood ratio (Kp,brain) were measured by AUC(brain)/AUC(blood or plasma) in rodents after oral administration. Similarly, CSF levels represented by a ratio of CSF/blood exposure (Kp,CSF) were determined by AUC(CSF)/AUC(blood or plasma). Free fraction of test compound in biological matrix was determined by in vitro blood and brain binding assay. Kp,uu brain and Kp,uu CSF was calculated by the following equation: Kp,uu brain=AUC(brain)/AUC(blood or plasma)×(fubrain/fublood/plasma) and […] Moreover, the ability of Compounds 6 and 16 to cross BBB was assessed in both rat and monkey by measuring unbound brain-to-plasma partition ratio (Kpuu,brain) and unbound CSF-to-plasma partition ratio (Kpuu,CSF) with the method mentioned above.

The test system of data set [3] is BT474 SC, BM and LM xenograft models. Put plainly: In vivo anti-tumor potency in SC, BM and LM xenograft mouse models.
For a further data set, the target named is T1, wild type EGFR (Homo sapiens, UniProt P00533).
T1 construct: which expresses wild type EGFR protein; endogenous in cells; host or cells: A431
Put plainly: pEGFR cellular activity in A431 cell line. The class given is cell-based. Here is the method: A compound's activity of inhibition for EGFR WT can be evaluated with NCI-H838 (ATCC® CRL-5844™) and A431 cell line (the epidermoid carcinoma cell line A-431), which expresses wild type EGFR protein as the count screening to define the selectivity of the compound.
The compounds' inhibition of target modulation were determined as follows: NCI-H838 cells and A431 cells were sorted in 96 well plates (20000 cells/well) with the DMEM medium containing 1% FBS overnight and then treated with tested compounds at a series of concentrations (3 μM, 0.3 μM, 0.1 μM, 0.03 μM, 0.01 μM, 0.003 μM, 0.001 μM, 0.0001 μM). The plates were incubated for 4 h at 37° C. with 5% CO2 followed by the stimulation of recombinant hEGF (100 ng/ml for 10 Min, RD, Cat #236-EG) and then the EGFR (Y1068) phosphorylation level of cells in each well were measured with MSD Kit (MULTI-SPOT®96 4-Spot HB Prototype EGFR Triplex […]: pEGFR (Tyr1068), pEGFR (Tyr1173), Total EGFR (Cat #N45ZB-1). The assay is a electrochemiluminescent method (MESO SCALE DISCOVERY) for determining both phosphorylated and total EGFR of cells with an MSD SECTOR® Imager and then the ratio of p-EGFR/total EGFR can be generated by the machine. The percentage of inhibition was used the formula: % inhibition=100×[1−(ratio of sample well−ratio of Min ctrl well)/(ratio of Max−Ratio of Min ctrl well)]. […]

The structures appear in SMILES notation. Entries after “also recorded” stand apart in the source; their conditions may differ.

T1 sequence (P00533 25-1210): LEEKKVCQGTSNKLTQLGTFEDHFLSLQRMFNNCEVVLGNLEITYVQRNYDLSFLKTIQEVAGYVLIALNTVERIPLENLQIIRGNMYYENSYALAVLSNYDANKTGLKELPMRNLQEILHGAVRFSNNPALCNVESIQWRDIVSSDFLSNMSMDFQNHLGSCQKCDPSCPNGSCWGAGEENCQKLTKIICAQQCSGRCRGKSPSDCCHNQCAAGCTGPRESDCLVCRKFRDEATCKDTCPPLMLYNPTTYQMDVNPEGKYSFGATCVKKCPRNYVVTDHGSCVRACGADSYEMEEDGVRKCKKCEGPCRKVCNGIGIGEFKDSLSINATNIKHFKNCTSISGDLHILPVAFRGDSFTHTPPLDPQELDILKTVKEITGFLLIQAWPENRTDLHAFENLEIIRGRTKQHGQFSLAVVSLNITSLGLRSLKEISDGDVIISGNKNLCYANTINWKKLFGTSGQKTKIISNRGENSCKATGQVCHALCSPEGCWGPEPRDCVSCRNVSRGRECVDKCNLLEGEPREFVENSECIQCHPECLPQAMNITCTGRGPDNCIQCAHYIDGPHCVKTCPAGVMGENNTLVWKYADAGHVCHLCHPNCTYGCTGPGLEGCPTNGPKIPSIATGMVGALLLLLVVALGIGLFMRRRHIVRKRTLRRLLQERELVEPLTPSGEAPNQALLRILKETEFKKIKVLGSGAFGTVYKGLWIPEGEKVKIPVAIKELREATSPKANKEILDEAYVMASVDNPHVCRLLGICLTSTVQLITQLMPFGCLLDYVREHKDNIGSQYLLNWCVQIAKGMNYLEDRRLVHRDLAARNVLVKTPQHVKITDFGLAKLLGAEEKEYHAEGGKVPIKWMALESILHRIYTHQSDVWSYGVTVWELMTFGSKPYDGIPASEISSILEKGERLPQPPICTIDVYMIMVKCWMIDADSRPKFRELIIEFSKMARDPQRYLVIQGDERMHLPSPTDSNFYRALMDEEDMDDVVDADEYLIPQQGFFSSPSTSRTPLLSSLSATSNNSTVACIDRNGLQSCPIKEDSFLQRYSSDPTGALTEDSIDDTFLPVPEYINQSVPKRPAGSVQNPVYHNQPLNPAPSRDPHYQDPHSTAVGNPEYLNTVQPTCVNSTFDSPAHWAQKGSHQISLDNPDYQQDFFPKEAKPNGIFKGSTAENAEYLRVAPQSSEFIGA

As a reminder, the half-life is how long it takes for the measured level to halve. Broadly, the IC50 is the point on the concentration scale where inhibition reaches its midpoint. `COc1cc(O[C@H]2CCN(C)CC2(F)F)c2c(Nc3ccc(Oc4ccn5ncnc5c4)c(C)c3)ncnc2c1` (single isomer, unassigned) [Compound 6]: the Kp uu is about 1.82 in data set [1] (human, CSF, oral, patients with BM, read-out: averaged Kpuu,CSF) and 0.87 in data set [2]. Also, in data set [1] (human, plasma, patients, single oral dose, read-out: terminal half-life (converted)), the half-life was about 18 h. In addition, the accumulation entry in data set [1] (patients, 15-day repeat dosing) is on record as “Around 2 fold”. The “drug exposure versus dose” value in data set [1] (patients, 50 to 200 mg) is “increased in a dose proportional manner”. Besides, in data set [1] (patients, doses ≥100 mg bid), the “free trough concentration versus pHER2 IC50 of BT474cl cells” value is listed as “above pHER2 IC50 of BT474cl cells”. The “anti-tumor activity compared to Tucatinib, Neratinib and Pyrotinib” value in data set [3] (BM and LM models) is “superior to Tucatinib, Neratinib and Pyrotinib”; in data set [3] (SC model), “comparable to them”. In addition, in data set [3] (BT474 SC, BM and LM xenograft models, 25-150 mg/kg), the “anti-tumor activity, monotherapy” value is on record as “potent anti-tumor activity; also recorded: profound tumor regression”. The IC50 against wild type EGFR came to 1460 nM.

For the origin of these results see patent US20220411422A1, “ERBB RECEPTOR INHIBITORS” (Dizal (Jiangsu) Pharmaceutical Co., Ltd., priority 2018, published 2022).
